According to US7378387B2, “Method of suppressing immune response by reducing intracellular content of glutathione in macrophages and monocytes” (Ajinomoto Co., Inc., priority 1997, dated 2008):

Assays:
IL-6 = IL-6 production from macrophages induced through administration (Example 9, Table 1); assay type: in vivo, DBA/2 mice; set-up: concentration or dose not given beside the values; conditions: produced spontaneously in the absence of a stimulator
Procedure: A stimulator was added to 1×10^6 MΦ, and the incubation was conducted at 37° C. for 2 days in a CO2 incubator. After centrifugation, the culture supernatant was collected.
The amount of IL-6 was determined using IL-6 dependent mouse hybridoma MH60 cells (J. Eur. Immunol., vol. 18, p. 951, 1988). One hundred microliters of the culture supernatant were added to 100 μl of the MH60 cell suspension adjusted to 1×10^5 cells/ml in a 10% FCS-containing RPMI medium, and the mixed solution was incubated at 37° C. for 2 days in a CO2 incubator. Subsequently, 10 μl of MTT (supplied by Sigma Co.) solution adjusted to a concentration of 5 mg/ml in the same medium were added thereto, and the reaction was conducted at 37° C. for 5 hours. After the completion of the reaction, the centrifugation was conducted. The supernatant (160 μl) was removed, and 100 μl of a mixture of hydrochloric acid and propanol were added to the residue. The suspension was conducted using a pipetman to dissolve the cells. Immediately after the dissolution, an absorbance of 570 nm was measured with an immunometer (supplied by Bio-Rad).
(§1) This was clarified by harvesting peritoneal exudate cells 20 hours after the completion of the administration, adhering the cells to the plastic surface, then reacting the cells with 10 μM of monochlorobimane at 37° C. for 30 minutes, and analyzing the reaction product with ACAS. The increase in the amounts of oxidative macrophages can easily be determined visually from the fact that almost no reaction product with monochlorobimane is observed, namely, a gray or blue image is provided, and the increase in the amounts of reductive macrophages from the fact that a red or yellow image is provided respectively. […] Meanwhile, the same examination was conducted by harvesting peritoneal exudate cells after 20 hours of the administration of 2 mg of N-acetylcystine (NAC).
Thus, the peritoneal exudate adherent cells were incubated in the following manner, and the amounts of NO and IL-12 produced in the culture supernatant were measured. With respect to the amount of IL-6, the amount of IL-6 produced spontaneously in the absence of a stimulator was measured.
Cells: The peritoneal exudate adherent cells obtained by the stimulation, namely, the macrophages were added to a 96-well microplate in an amount of 1×10^5 cells/200 μl each.
Medium: Phenol red-free RPMI 1640: 200 μl/well

[1] = tested on: spontaneous onset of insulin-dependent diabetes mellitus; assay: Onset of diabetes mellitus in NOD mice dosed at age 9 to 11 weeks (Example 25); assay type: in vivo; conditions: nine times
Source text: NOD mice purchased from Nippon Clair, Co. were naturally mated together. Among the off spring mice, a colony of NOD mice with a high frequency of the spontaneous onset of insulin-dependent diabetes mellitus was established. Female NOD mice from the colony were used for the present experiment. Chemical agents were orally or intraperitoneally administered to the NOD mice aged 9 to 11 weeks three times per week, in total nine times; and based on the test results of urine glucose, positive or negative, the onset of diabetes mellitus was followed once per week. Urine glucose was detected, using Uropaper (BM Test Glucose 5000, manufactured by Yamanouchi Pharmaceuticals, Co. Ltd.). The onset was judged on week 22; the doses were the same as in Example 24.

[2] = tested on: peritoneal exudate cells (macrophages); assay: Induction of oxidative or reductive macrophages by administration, monochlorobimane/ACAS (Example 9); assay type: in vivo, DBA/2 mice; conditions: for type of macrophages induced (monochlorobimane, ACAS): Day 1 and Day 2, cells harvested 20 hours later, 20 μg (NAC-OMe)2 or (NAC)2, 10 μg acetylgliotoxin, 2 mg NAC intraperitoneally, 40 μg dexamethasone subcutaneously
Procedure: as §1

[3] = tested on: adjuvant-induced arthritis; assay: Adjuvant-induced arthritis (AA) in rats, joint swelling (Examples 18 and 19); assay type: in vivo, Lewis rats
Procedure: Adjuvant-induced arthritis was triggered in Lewis rats in a conventional manner; and the effects of chemical agents were examined in the animals. Adjuvant-induced arthritis is well known as an experimental arthritis inducible in rats [Taurog et al., Meth. Enzymol. 162, 339-355 (1988)]. […] An adjuvant is administered at 1 mg/0.1 ml per rate at a site of caudal root. The edema reaches its peak about 2 to 3 weeks after the administration of the adjuvant. The edema is triggered by inflammatory infiltration of monocytes. Swollen joints are measured with a micrometer every day; comparing the diameters of the joints prior to and after adjuvant administration and after initiation of the treatment with chemical agents with the diameters of the joints in the control group, the effects of the chemical agents were expressed as the ratio in % of joint swelling in the experimental groups to joint swelling in the control group. The effects were determined on day 15 after adjuvant administration. The chemical agents were given, starting the day next to the day of adjuvant administration, and every 3 days thereafter.
A single dose is 1 mg/kg for (NAC)2 and (NAC-OMe)2; 100 mg/kg for NAC; and 0.1 mg/kg for lentinan.
Adjuvant-induced arthritis was induced in Lewis rats in a conventional manner. In the same manner as in Example 11, the effects of chemical agents were examined in these rats. The conditions were the same as described above.

[4] = tested on: spontaneous onset of insulin-dependent diabetes mellitus; assay: Onset of diabetes mellitus in NOD mice dosed at age 3 to 6 weeks (Example 23); assay type: in vivo; conditions: three times per week, nine times; for Frequency (%) of onset of diabetes mellitus, on age 18 weeks: saline 50; for Frequency (%) of onset of diabetes mellitus, on age 22 weeks: saline 80
Procedure: NOD mice purchased from Nippon Clair, Co. were naturally mated together. Among the off spring mice, a colony of NOD mice with a high frequency of the spontaneous onset of insulin-dependent diabetes mellitus was established. Female NOD mice from the colony were used for the present experiment. […] Urine glucose was detected, using Uropaper (BM Test Glucose 5000, manufactured by Yamanouchi Pharmaceuticals, Co. Ltd.). Chemical agents were administered intraperitoneally, unless otherwise stated. […] (NAC)2 and (NAC-OMe)2 were at a single dose of 20 μg/animal; and NAC and GSHOEt were at a single dose of 2 μg/animal; and a single dose of lentinan was 0.1 mg/kg.

[5] = tested on: spontaneous onset of insulin-dependent diabetes mellitus; assay: Onset of diabetes mellitus in NOD mice dosed at age 3 to 6 and 9 to 11 weeks (Example 24); assay type: in vivo; conditions: doses as in the table line, 15 times in total, judged on week 22, saline 60
Source text: NOD mice purchased from Nippon Clair, Co. were naturally mated together. Among the off spring mice, a colony of NOD mice with a high frequency of the spontaneous onset of insulin-dependent diabetes mellitus was established. Female NOD mice from the colony were used for the present experiment. […] Urine glucose was detected, using Uropaper (BM Test Glucose 5000, manufactured by Yamanouchi Pharmaceuticals, Co. Ltd.). The onset was judged on week 22.

[6] = Table 3, day 15 after adjuvant, every 3 days, single dose 1 mg/kg (NAC)2 and (NAC-OMe)2, 100 mg/kg NAC, 0.1 mg/kg lentinan

Structure (SMILES)	IL-6, amount produced relative to that of control group (IL-6) [%]	Frequency (%) of onset of diabetes mellitus ([1]; route not given, judged on week 22, saline 67) [%]	type of macrophages induced (monochlorobimane, ACAS) [2]	Ratio in % of joint swelling in experimental groups to joint swelling in control group [3, 6] [%]	Ratio in % of joint swelling in experimental groups to joint swelling in control group ([3]; Table 4, intravenous) [%]	Frequency (%) of onset of diabetes mellitus, on age 18 weeks ([4]; intraperitoneal) [%]	Frequency (%) of onset of diabetes mellitus, on age 22 weeks ([4]; intraperitoneal) [%]	Frequency (%) of onset of diabetes mellitus ([1]; intraperitoneal, judged on week 22, doses as in Example 24, saline 67) [%]	induction of oxidative macrophages on ACAS ([2]; intraperitoneally 20 μg/0.5 ml/h each, twice a week for three weeks, 9-11 weeks of age)	Frequency (%) of onset of diabetes mellitus ([5]; intraperitoneal) [%]	Frequency (%) of onset of diabetes mellitus ([1]; oral, judged on week 22, doses as in Example 24, saline 67) [%]	Ratio in % of joint swelling in experimental groups to joint swelling in control group ([3]; Table 4, oral) [%]	Frequency (%) of onset of diabetes mellitus ([5]; oral) [%]	Frequency (%) of onset of diabetes mellitus, on age 18 weeks ([4]; oral) [%]	Frequency (%) of onset of diabetes mellitus, on age 22 weeks ([4]; oral) [%]
CC(=O)N[C@@H](CSSC[C@H](NC(C)=O)C(=O)O)C(=O)O [(NAC)2, N,N′-diacetylcystine]	340	60	Oxidative macrophages were induced	96	95	60	80								
COC(=O)[C@H](CSSC[C@H](NC(C)=O)C(=O)OC)NC(C)=O [(NAC-OMe)2, N,N′-diacetylcystine dimethyl ester]	320		Oxidative macrophages were induced	50	42	70	80	11	induction of oxidative macrophages was confirmed	70					
CCOC(=O)CNC(=O)[C@H](CS)NC(=O)CC[C@H](N)C(=O)O [GSH-OEt, glutathione monoethyl ester]						0	5			0					
CC(=O)N[C@@H](CS)C(=O)O [NAC, N-acetylcysteine, reference compound]	42		reductive macrophages were induced	132		10	20				60	142	40	30	40
